Results taken from patent publication US20220251084A1, “PROGRANULIN MODULATORS AND METHODS OF USING THE SAME” (ARKUDA THERAPEUTICS, priority 2019, published 2022).

tested on: progranulin (PGRN) secretion, BV-2 cells; test: PGRN assay: progranulin induction cellular assay (ELISA of secreted mouse PGRN); type: cell-based; conditions: Mus musculus, BV-2, PGRN assay, Table D; secreted mouse PGRN in cell culture medium, ELISA
In short: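 Progranulin induction measured in BV-2 cells plated at about 80% confluence the day before, given 1 h to attach, then incubated 16 h. Secreted mouse PGRN quantified by ELISA.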

| SMILES | EC50 |
| --- | --- |
| CN(C)C[C@@H]1CCN(C(=O)N2CCc3ccccc3[C@@H]2c2ccc(F)cc2)C1 [Compound 2313, ((S)-3-((dimethylamino)methyl)pyrrolidin-1-yl)((S)-1-(4-fluorophenyl)-3,4-dihydroisoquinolin-2(1H)-yl)methanone] | 2940 nM |
| CN(C)C[C@H]1CCN(C(=O)N2CCc3ccccc3[C@@H]2c2ccc(F)cc2)C1 [Compound 2314] | 1660 nM |
| CN1C[C@H](NC(=O)N2CCc3ccccc3[C@H]2c2ccc(F)cc2)C2(CC2)C1 [Compound 2316] | 453 nM |
| O=C(N[C@H]1CNC[C@@H]1F)N1CCc2ccccc2[C@@H]1c1ccc(F)cc1 [Compound 2351, (S)-1-(4-fluorophenyl)-N-((3S,4S)-4-fluoropyrrolidin-3-yl)-3,4-dihydroisoquinoline-2(1H)-carboxamide] | 130 nM |
| O=C(N[C@@H]1CNC[C@@H]1F)N1CCc2ccccc2[C@@H]1c1ccc(F)cc1 [Compound 2353] | 33.9 nM |
| O=C(N[C@@H]1CNC[C@H]1F)N1CCc2ccccc2[C@@H]1c1ccc(F)cc1 [Compound 2360] | 148 nM |
| O=C(O[C@@H]1CNC[C@@H]1F)N1CCc2ccccc2[C@@H]1c1ccc(F)cc1 [Compound 2363] | 104 nM |

The next lines start with the values.

| EC50 | SMILES |
| --- | --- |
| 2940 nM | O=C(NCC1CNC[C@@H]1O)N1CCc2ccccc2[C@@H]1c1ccc(F)cc1 (stereo partly drawn) [Compound 2308, (S)-1-(4-fluorophenyl)-N-((cis-4-hydroxypyrrolidin-3-yl)methyl)-3,4-dihydroisoquinoline-2(1H)-carboxamide] |
| 987 nM | CN(C)[C@@H]1CCN(C(=O)N2CCc3ccccc3[C@@H]2c2ccc(F)cc2)C1 [Compound 2312] |
| 742 nM | CN1C[C@H](NC(=O)N2CCc3ccccc3[C@@H]2c2ccc(F)cc2)C2(CC2)C1 [Compound 2315] |
| 346 nM | O=C(O[C@@H]1CNC[C@H]1F)N1CCc2ccccc2[C@@H]1c1ccc(F)cc1 [Compound 2349, (3R,4R)-4-fluoropyrrolidin-3-yl (S)-1-(4-fluorophenyl)-3,4-dihydroisoquinoline-2(1H)-carboxylate] |
| 125 nM | O=C(N[C@H]1CNC[C@H]1F)N1CCc2ccccc2[C@@H]1c1ccc(F)cc1 [Compound 2352] |
| 365 nM | O=C(O[C@H]1CNC[C@@H]1F)N1CCc2ccccc2[C@@H]1c1ccc(F)cc1 [Compound 2361, (3S,4S)-4-fluoropyrrolidin-3-yl (S)-1-(4-fluorophenyl)-3,4-dihydroisoquinoline-2(1H)-carboxylate] |
| > 3160 nM | O=C(O[C@H]1CNC[C@H]1F)N1CCc2ccccc2[C@@H]1c1ccc(F)cc1 [Compound 2362] |

same assay, conditions: mouse BV2 cells

| SMILES | secretion of progranulin |
| --- | --- |
| O=C(O[C@H]1CN2CCC1CC2)N1CCc2ccccc2[C@@H]1c1ccccc1 [Solifenacin, reference compound] | causes the secretion of progranulin |
